Data as given in patent publication US20080171737A1 (Wyeth, priority 2006, published 2008).

target: T1, human hNET (Homo sapiens, UniProt P23975); assay: Functional norepinephrine reuptake assay, Procedure A (50,000 cells/well); format: cell-based; settings: MDCK-Net6 cells, 50,000 cells/well, 16 nM 3H-norepinephrine; read-out: Procecedure A NE Uptake IC50
T1 construct: expressed in transfected cells; host or cells: MDCK-Net6 (MDCK cells stably transfected with hNET)
Protocol: For screening, 25 μl aliquots of compound solution at a 1 μM or 10 μM final concentration was delivered directly to cells.
For IC50 determinations, stock compounds were prepared at 10 mM from powder. The stock solution was diluted according to compound testing range. Typically, the compound testing range was from 6 nM to 6 μM by half log dilutions. On the day of assay, 25 μl of compound solution at the specified concentrations were added to the plates containing cells. A DMSO stock of desipramine was prepared at 10 mM in DMSO and diluted for a final concentration of 20 μM to determine the non-specific reuptake.
MDCK-Net6 cells, stably transfected with human hNET (Pacholczyk, 1991), were maintained in growth media [high glucose DMEM (Gibco Cat. 11995), 10% FBS (dialyzed, heat-inactivated, Sigma, dialysed, heat inactivated, Lot# K0922 or equivalent) 1xPen/Strep, and 500 μg/ml G418 (Gibco Cat. 10131)]. Cells were plated at 300,000/T75 flask and cells split twice weekly.
Cells were plated at 50,000 cells/well (Procedure A) or 6,000 cells/well (Procedure B) on day 1 in BD Falcon Microtest 96-well sterile cell culture plates, Optilux White/Clear Bottom TC plate (VWR; # 62406-466 or equivalent) in growth media and maintained in a cell incubator (37° C., 5% CO2). On Day 2, cells were removed from the cell incubator and the growth media is replaced by 200 μl of assay buffer (25 mm HEPES 120 mM NaCL; 5 mM KCl; 2.5 mM CaCl2; 1.2 mM MgSO4; 2 mg/ml glucose (pH 7.4, 37° C.)) containing 0.2 mg/ml ascorbic acid and 1 μM parglyine. For screening, 25 μl of compound in 4% DMSO was added directly to each well and the plate was incubated for 5 minutes (37° C.). To initiate the norepinephrine reuptake, 16 nM (final concentration) of ^3H norepinephrine (specific activity; 40-80 Ci/mmol) in assay buffer was delivered in 25 μl aliquots to each well, and the plates were incubated for 5 min at 37° C. The reaction is aspirated from the plate and the cells washed with 250 μl of 50 mM Tris Buffer (4° C.). The plates were left to dry for 1 hour. The cells were lysed using 0.25 M NaOH solution then placed on a shake table and vigorously shaken for 10 minutes. After cell lysis, 100 μl of Microscint 20 (PerkinElmer; #87-051101) was added to the plates and the plates were sealed with film tape and replaced on the shake table for a minimum of 10 minutes. The plates were counted in a TopCount counter (PerkinElmer).
For screening single point determinations, each compound plate contained at least 3 control wells (maximum NE reuptake determinant) and 3 non-specific wells determined by adding 20 μM of desipramine (minimum NE reuptake determinant). Determination of active compounds was calculated using a Microsoft Excel spread sheet applying the following formula:
% inhibition=[1−((mean cpm test compound wells−mean cpm non-specific wells)/(mean cpm control wells−mean cpm non-specific wells))]×100
For IC50 determination, raw cpm values were generated in a data file from the TopCount counter. The data was organized using the Microsoft Excel and transferred into PRIZM graphing and statistical program, which calculated the estimated IC50 value. Calculation of IC50 values was made using non-linear regression analysis with a sigmoidal dose response with variable slope. The statistical program used wells containing ^3H norepinephrine only as the maximal NE reuptake determinant and wells containing ^3H norepinephrine plus 20 μM desipramine (AHR-9543) as the minimal NE reuptake determinant (non-specific determinant). Estimation of the IC50 value was completed on a log scale and the line was fit between the maximal and minimal NE reuptake values.

T1 sequence (P23975 whole entry): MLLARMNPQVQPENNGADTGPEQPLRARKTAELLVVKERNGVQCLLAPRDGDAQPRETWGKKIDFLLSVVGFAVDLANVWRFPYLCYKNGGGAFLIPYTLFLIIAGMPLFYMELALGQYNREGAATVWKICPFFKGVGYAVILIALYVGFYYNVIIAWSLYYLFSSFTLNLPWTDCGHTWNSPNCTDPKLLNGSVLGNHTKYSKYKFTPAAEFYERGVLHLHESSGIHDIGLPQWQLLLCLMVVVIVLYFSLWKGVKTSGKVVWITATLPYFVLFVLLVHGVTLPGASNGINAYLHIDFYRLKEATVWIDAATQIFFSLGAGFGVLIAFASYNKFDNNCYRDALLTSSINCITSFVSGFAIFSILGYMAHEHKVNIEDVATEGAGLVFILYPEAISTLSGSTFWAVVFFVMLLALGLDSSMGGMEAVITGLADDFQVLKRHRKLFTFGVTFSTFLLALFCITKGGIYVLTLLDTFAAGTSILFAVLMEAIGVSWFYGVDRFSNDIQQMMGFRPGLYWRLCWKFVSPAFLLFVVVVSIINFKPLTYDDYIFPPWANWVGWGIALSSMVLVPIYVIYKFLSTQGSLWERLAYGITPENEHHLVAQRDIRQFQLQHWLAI

| Compound | IC50 |
| --- | --- |
| CNCCC[C@]1(C)Cc2ccccc2N(c2ccccc2)S1(=O)=O (single isomer, unassigned) [Example 9] | 113 nM |
| CNCCCC1Cc2ccccc2N(c2ccccc2)S1(=O)=O (centres unmarked) [Example 1, 3-(2,2-dioxido-1-phenyl-3,4-dihydro-1H-2,1-benzothiazin-3-yl)-N-methylpropan-1-amine] | 33.5 nM |
| NCCCC1Cc2ccccc2N(c2ccccc2)S1(=O)=O (centres unmarked) [Example 2, 3-(2,2-dioxido-1-phenyl-3,4-dihydro-1H-2,1-benzothiazin-3-yl)propan-1-amine] | 233 nM |
| CN(C)CCCC1Cc2ccccc2N(c2ccccc2)S1(=O)=O (centres unmarked) [Example 3, 3-(2,2-dioxido-1-phenyl-3,4-dihydro-1H-2,1-benzothiazin-3-yl)-N,N dimethylpropan-1-amine] | 484 nM |
| CCNCCCC1Cc2ccccc2N(c2ccccc2)S1(=O)=O (centres unmarked) [Example 4, 3-(2,2-dioxido-1-phenyl-3,4-dihydro-1H-2,1-benzothiazin-3-yl)-N-ethylpropan-1-amine] | 1880 nM |
| CC(C)NCCCC1Cc2ccccc2N(c2ccccc2)S1(=O)=O (centres unmarked) [Example 5, 3-(2,2-dioxido-1-phenyl-3,4-dihydro-1H-2,1-benzothiazin-3-yl)-N-isopropyl propan-1-amine] | 166 nM |
| O=S1(=O)C(CCCN2CCCC2)Cc2ccccc2N1c1ccccc1 (centres unmarked) [Example 6, 1-phenyl-3-(3-pyrrolidin-1-ylpropyl)-3,4-dihydro-1H-2,1-benzothiazine 2,2-dioxide] | 133 nM |
| O=S1(=O)C(CCCNCc2ccccc2)Cc2ccccc2N1c1ccccc1 (centres unmarked) [Example 7, N-benzyl-3-(2,2-dioxido-1-phenyl-3,4-dihydro-1H-2,1-benzothiazin-3-yl)propan-1-amine] | 3010 nM |
| CNCCCC1Oc2ccccc2N(c2ccccc2)S1(=O)=O (centres unmarked) [Example 12, 3-(2,2-dioxido-1-phenyl-1H-4,2,1-benzoxathiazin-3-yl)-N-methylpropan-1-amine] | 33.1 nM |

same assay, conditions: MDCK-Net6 cells, 50,000 cells/well; Conc 2000 nM

| Compound | Procedure A [3H] NE Uptake Displacement % |
| --- | --- |
| O=S1(=O)C(CCCNC2CCCCC2)Cc2ccccc2N1c1ccccc1 (centres unmarked) [Example 8, N-[3-(2,2-dioxido-1-phenyl-3,4-dihydro-1H-2,1-benzothiazin-3-yl)propyl]cyclohexanamine] | 17% |

target: T1, human hNET; assay: Functional norepinephrine reuptake assay, Procedure B (6,000 cells/well); format: cell-based; settings: MDCK-Net6 cells, 6,000 cells/well, 16 nM 3H-norepinephrine; read-out: Procedure B hNET uptake IC50
Procedure, shortened: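 MDCK cells stably expressing human NET, 6,000 cells/well, in HEPES-buffered saline pH 7.4 with ascorbic acid and 1 μM pargyline; compound preincubated 5 min at 37° C. ^3H norepinephrine uptake counted by scintillation; non-specific defined with 20 μM desipramine. IC50 from variable-slope sigmoidal nonlinear fit.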

| Compound | IC50 |
| --- | --- |
| CNCCCC1Cc2ccccc2N(c2ccccc2)S1(=O)=O (centres unmarked) [Example 1, 3-(2,2-dioxido-1-phenyl-3,4-dihydro-1H-2,1-benzothiazin-3-yl)-N-methylpropan-1-amine] | 18.5 nM |
| CNCCCC1Oc2ccccc2N(c2ccccc2)S1(=O)=O (centres unmarked) [Example 12, 3-(2,2-dioxido-1-phenyl-1H-4,2,1-benzoxathiazin-3-yl)-N-methylpropan-1-amine] | 0.7 nM |
| CNCCCC1Cc2cc(Cl)ccc2N(c2ccccc2F)S1(=O)=O (centres unmarked) [Example 175, 3-[6-chloro-1-(2-fluorophenyl)-2,2-dioxido-3,4-dihydro-1H-2,1-benzothiazin-3-yl]-N-methylpropan-1-amine] | 42 nM |

same assay, conditions: MDCK-Net6 cells, 6,000 cells/well; Conc 6000 nM (6 μM); read-out: Procedure B hNET uptake (% inhibition)

| Compound | inhibition at 6 µM |
| --- | --- |
| CNCC1Oc2ccccc2N(c2ccccc2)S1(=O)=O (centres unmarked) [Example 144, 1-(2,2-dioxido-1-phenyl-1H-4,2,1-benzoxathiazin-3-yl)-N-methylmethanamine] | 53% |
